Results as given in patent US8215314B2, “Photochemical tissue bonding” (The General Hospital Corporation, priority 2000, dated 2012).

Experiments:
[1] = tested on: rabbit (New Zealand White) corneas; experiment: In vivo PTB of 3.5-mm corneal incisions, incisional bursting pressure; settings: 1.5 mM RB
Method: PTB was performed in vivo in New Zealand rabbits to repair two types of corneal wounds.
In group I 3.5-mm incisions were performed in 20 rabbit (New Zealand White) corneas. Dose and laser irradiance were varied in subgroups of five or more eyes for each condition and appropriate control eyes. Photoactivation was performed with a 514 nm Argon Laser. Wound leak and incisional bursting pressure of the treated and untreated rabbit eyes was determined in vivo, with the animals under anesthetic.
Group I wounds were healed using, e.g., 191 J/cm2, applying 1.5 mM RB. The immediate in vivo bursting pressure was 495±10 mm Hg for PTB treated eyes. Under the same conditions the values of the busting pressure in the control eye varied from 15 to 60 mm Hg. One day after surgery, the bursting pressure was the same for PTB treated eyes and control eyes (approximately 450±125 mmHg). At 14 days, the bursting pressure exceeded 500 mm Hg in both PTB-treated and control eyes.

[2] = Absorption maxima and absorption coefficients of photosensitizers; type: physicochemical
From the text: The photosensitizers were used as received with the exception of N-HPT which was recrystallized twice from aqueous ethanol before use.

[3] = tested on: corneal incision, rabbit eyes ex vivo; experiment: IOP required to produce fluid leakage from corneal incision (IOPL) after PTB, ex vivo; settings: for mean IOPL: RB 1.5 mM, 514 nm
Method: PTB can be used to seal or repair a tissue, e.g., a wound, e.g., a corneal wound. This example illustrates the experimental procedure designed to test the efficacy of PTB, as described herein, using mammalian corneas ex vivo. Experiments were performed according to the following procedure.
Rabbit eyes were received on ice (Pel-Freez Biologicals) approximately 17-24 hours after sacrifice and enucleation. The eyes were kept on ice and used the same day. The eye to be studied was mounted on a plastic-covered polystyrene block and fixed in position by needles inserted through the extraocular muscles into the polystyrene. The eye was then placed under a dissecting microscope (Reichert Scientific Instruments, Ill.) allowing visualization of the treated area during the entire procedure. A 27 G needle was inserted parallel to the iris, 2 mm anterior to the limbus into clear cornea, and positioned above the lens in the anterior chamber. The needle was connected to both a blood pressure transducer (Harvard Apparatus, Mass.) and a mini-infuser 400 (Bard Harvard) via a T coupler. The pressure transducer consists of a transducer element that is hard wired to an amplifier box and uses a semi-disposable dome with an integral silicone rubber membrane. Pressure inside the dome is transmitted through the membrane to a plastic button whose motion is translated to a voltage. The voltage generated by the transducer amplifier combination is proportional to the […] intraocular pressure (IOP). Signals from the transducer amplifier were recorded using a Macintosh G3 Power book equipped with a PCMICA (DAQCARD—1200) data acquisition card (National Instruments, Tex.). Data acquisition was controlled using programs written using the LabView 4 software package (National Instruments, Tex.). The voltage from the transducer and amplifier was converted to pressure by calibrating with a standing manometer.
Experiments on individual eyes were initiated by increasing the IOP to 30-40 mm Hg, using water infusion at a rate of 1 mL per minute. An incision was made in the cornea, 1 mm from the limbus and parallel to the iris, using a 3.5 mm angled keratome (Becton Dickinson Co.). For each eye the IOP required to produce fluid leakage from the incision (IOPL) was recorded pre- and post-PTB treatment. A photosensitizer, dissolved in phosphate buffer solution (PBS, pH 7.2, Gibco BRL) was applied to the walls of the incision using a Gastight, 50 μl syringe (Hamilton Co.) with a 27 G needle.
Irradiations employed a continuous wave (CW) argon-ion laser (Innova 100; Coherent, Inc., Palo Alto, Calif.) at 488 nm (for Fl and R-5-P), 514.5 nm (for RB) or 351 nm (for NHPT). An argon-ion-pumped dye laser (CR-599; Coherent) with 4-dicyanomethylene-2-methyl-6-(p-dimethylaminostyryl)-4H-pyran dye (Exciton, Inc., Dayton, Ohio) was used for irradiation at 661 nm (for MB). Laser light was coupled into a 1 mm diameter quartz fiber and a 1 cm diameter spot on the tissue was created by using a combination of 1 and 2 inch focal length, S1-UV grade fused silica, biconvex lenses (Esco Products), mounted in a SM1 series cage assembly (Thorlabs, N.J.). The 1 cm diameter circular spot was sufficient to cover the entire incision and the optics were adjusted so that the laser light was incident on the cornea at an angle approximately 45° to the plane of the incision. Dose response curves were obtained by varying the duration of the irradiation at a constant irradiance. In separate experiments the effects of laser irradiance were investigated by comparison of the same delivered dose using different irradiances. The doses used ranged from 124 to 1524 J/cm^2 and the irradiances used were 0.64, 1.27, 2.55 and 3.86 W/cm^2. The laser exposure time varied from 33 seconds for the lowest dose using the highest irradiance to 26 minutes, 27 seconds for the highest dose using the lowest irradiance. The IOPL was recorded immediately following treatment. […]

**Q.** Which “immediate in vivo bursting pressure” value ([1]; 191 J/cm2, 514 nm, 3.5-mm incision) does the source give for `O=C([O-])c1c(Cl)c(Cl)c(Cl)c(Cl)c1-c1c2cc(I)c(=O)c(I)c-2oc2c(I)c([O-])c(I)cc12.[Na+].[Na+]` [Rose Bengal] here?
**A.** 495±10 mm Hg

**Q.** What about the “bursting pressure at 14 days” value ([1]; 191 J/cm2, also in control eyes) of the same compound?
**A.** exceeded 500 mm Hg

**Q.** And the “bursting pressure one day after surgery” value ([1]; 191 J/cm2, same as control eyes)?
**A.** approximately 450±125 mmHg

**Q.** And the absorption maximum [2]?
**A.** 550 nm

**Q.** What about the “absorption coefficient at the laser wavelength used” value ([2]; RB at 514 nm, Fl at 488 nm, MB at 661 nm, R-5-P at 488 nm, N-HPT at 351 nm) of the same compound?
**A.** 33000 dm^3 mol^−1 cm^−1

**Q.** And the “mean IOPL post-treatment” value ([3]; 1.5 mM RB and 514 nm laser light)?
**A.** greater than 300±48 mm Hg

**Q.** And the “mean IOPL” value ([3]; 1270 J/cm^2 at 1.27 W/cm^2)?
**A.** 274 mm Hg

**Q.** What about the “mean IOPL” value ([3]; 1270 J/cm^2 at 2.55 W/cm^2) of the same compound?
**A.** 150 mm Hg

**Q.** And the “mean IOPL” value ([3]; 1270 J/cm^2 at 3.86 W/cm^2)?
**A.** 130 mm Hg

**Q.** What about the IOPL ([3]; RB, all doses delivered at 1.27 and 2.55 W/cm^2) of the same compound?
**A.** greater than 100 mm Hg

**Q.** What about the “rise in IOPL” value ([3]; RB, doses below 508 J/cm^2 at any irradiance tested) of the same compound?
**A.** No significant rise

**Q.** And the “increase between pre- and post-treatment IOPL” value ([3]; photosensitizer alone, no laser irradiation)?
**A.** no significant increase
